The values that follow are results of earlier work, collected in patent US6969706B1, “Preserved pharmaceutical compositions comprising cyclodextrins” (Allergan, Inc., priority 2004, dated 2005).

The data set has as its system a number of pathogens. To be noted: HPβCD solutions; reported by Loftsson et al. 1992.
With `N=C(NCCCCCCNC(=N)NC(=N)Nc1ccc(Cl)cc1)NC(=N)Nc1ccc(Cl)cc1.O=C(O)[C@H](O)[C@@H](O)[C@H](O)[C@H](O)CO.O=C(O)[C@H](O)[C@@H](O)[C@H](O)[C@H](O)CO` [chlorhexidine gluconate], the “preservative activity in the presence of 2-hydroxypropyl-β-cyclodextrin” value (“preservative activity in the presence” below) was “did possess preservative activity”.
As for benzalkonium chloride, the “preservative activity in the presence” value is “did possess preservative activity”.
Take `COC(=O)c1ccc(O)cc1` [methylparaben]: the “preservative activity in the presence” value is “significantly reduced preservative activity”.
On to `CCCOC(=O)c1ccc(O)cc1` [propylparaben], for which the “preservative activity in the presence” value is on record as “significantly reduced preservative activity”.
